Key:
[1] = system: spinal-cord transcription; assay: RNA sequencing and metabolomic analysis of L4-L6 spinal cord; assay type: in vivo, mouse; conditions: systemic ARN19702 administration on PFD2-3
Method: RNA sequencing and bioinformatics analysis: We extracted total RNA with the RNeasy Mini Kit (Qiagen). Samples with RNA integrity number ≥8.5 were kept for library construction. cDNA synthesis, amplification, library construction, and sequencing were performed at Novogene (Bejing, China) using the Illumina NovaSeq platform with paired-end 150 bp (PE 150) sequencing strategy. Downstream analysis was performed using a combination of programs including STAR, HTseq, Cufflink and Novogene's wrapped scripts. Alignments were parsed using the STAR program and differential expressions were determined using DESeq2/edgeR. Gene Ontology (GO) and Kyoto Encyclopedia of Genes and Genomes (KEGG) enrichment were implemented using the ClusterProfiler.
Metabolomic analysis: Metabolomics analyses were performed at the West Coast Metabolomics Center of the University of California Davis, as described^55. Briefly, frozen lumbar spinal cord (L4-L6) fragments (˜5 mg) were homogenized in Eppendorf tubes (2 ml) for 2 min using metal spheres ([…] diameter) in a MM300 mill (Retsch, Germany). A mixture of isopropanol/acetonitrile/water (3/3/2, vol) was added to the grounded tissue (1 ml per 20 mg), stirred for 10 s and shaken at 4° C. for 5 min. […]

[2] = system: formalin-injected mice; assay: Elevated plus maze test (anxiety-like behavior) after formalin; assay type: in vivo, mouse; conditions: ARN19702 30 mg-kg^−1 IP once daily for 3 days starting 24 h after formalin; PFD7
Method: (§1) Elevated plus maze test: We placed each mouse in the central platform of the maze, facing the open arm opposite to the experimenter, and behavior was recorded using the Debut video capture software (NCH Software, Canberra, Australia). A blinded observer measured the amount of time spent in the open and closed arms, as well as the number of open and closed arm entries. The open arms of the maze were illuminated at 150-170 lux and the closed arms at 40-50 lux.
as §1, with “lux. The anxiety index was calculated as follows: […]” for “lux.”

[3] = system: PEA levels in ipsilateral lumbar spinal cord (L4-L6); assay: PEA quantification in lumbar spinal cord (LC/MS-MS); assay type: in vivo, mouse; conditions: post-formalin ARN19702 30 mg-kg^−1 IP on PFD2-4; 2 h after administration
Method: Lipid extraction: Lumbar L4-L6 spinal cord fragments (˜15 mg each) were transferred into 2 ml Precellys® soft tissue tubes (Bertin Instruments, France) and diluted with ice-cold acetone (1 ml) containing [2H4]-PEA (50 μl, 100 nM) Samples were homogenized at 4° C., 6000 rpm, 15 s/cycle for 2 cycles with 20 s pause in between cycles. Supernatants were transferred into 8-ml glass vials and dried under nitrogen. Chloroform/methanol (2/1, vol, 3 ml) and water (1 ml) were added to the samples, which were then stirred vigorously and centrifuged at 830×g for 15 min at 4° C. The lower (organic) phases were collected and upper phases were extracted again with chloroform (2 ml) and combined with the previous extract. Extracts were dried under nitrogen, reconstituted in acetonitrile (0.1 ml), transferred to deactivated glass inserts and placed inside amber glass vials for liquid chromatography/tandem mass spectrometry (LC/MS-MS) analyses.
PEA quantification: PEA was fractionated using a 1260 series LC system (Agilent Technologies, Santa Clara, CA) coupled to a 6460C triple-quadrupole mass spectrometric detector (MSD; Agilent). […] The MSD was operated in the positive electrospray ionization mode, and analytes were quantified by multiple reaction monitoring. […]

[4] = system: formalin-injected mice; assay: Conditioned place preference (spontaneous/ongoing pain) after formalin; assay type: in vivo, mouse; conditions: ARN19702 30 mg-kg^−1 IP once daily for 3 days starting 24 h after formalin; PFD14
Method: Preconditioning: 12 days after tissue damage, mice were placed in the two chamber CPP apparatus (for details see (63)) and the time spent in each chamber was recorded for 10 min and analyzed to determine preconditioning baseline.
Conditioning: Mice underwent single trial conditioning 24 h after preconditioning using a biased approach. In the morning of the conditioning day, animals received saline and were immediately placed into the preferred chamber (saline paired) of the CPP box for 30 min, with no access to the other chambers. Approximately 4 h later, mice received gabapentin (50 mg-kg^−1, IP) and were immediately confined in the non-preferred chamber for 30 min (gabapentin paired).
Preference test: On the test day (POD14 or PFD14), 12 h after the afternoon pairing, mice were placed back into the center of the CPP chambers with free access to all chambers for 10 min. Time (s) spent in each chamber was recorded and evaluated by a blind observer to determine preference.

[5] = system: formalin-injected mice; assay: 24-h novel object recognition test (long-term memory) after formalin; assay type: in vivo, mouse; conditions: ARN19702 30 mg-kg^−1 IP once daily for 3 days starting 24 h after formalin; PFD14
Method: The test was conducted over 3 days.
The test was conducted over 3 days. […] The discriminatory index was calculated as follows: […]

[6] = system: naïve animals; assay: Baseline nociceptive thresholds in naïve animals; assay type: in vivo, mouse; conditions: ARN19702 30 mg-kg^−1 IP, ARN16186 10 mg-kg^−1 IP
[7] = system: formalin-injected mice; assay: Formalin test: acute nocifensive behavior; conditions: pretreatment; ARN16186 10 mg-kg^−1 IP, ARN19702 30 mg-kg^−1 IP; wild-type mice, 1% formalin

## CCS(=O)(=O)c1ccccc1C(=O)N1CCN(c2nc3ccc(F)cc3s2)C[C@@H]1C [ARN19702]
[1]
  transcriptional and metabolic changes in L4-L6 spinal cord on the following day: prevented the appearance
[2]
  anxiety-like behavior: normalizing
[3]
  PEA levels in ipsilateral lumbar spinal cord (L4-L6): normalized
[4]
  ongoing pain: normalizing
[5]
  memory deficits: normalizing
[6]
  baseline nociceptive thresholds: Neither compound affected
[7]
  nocifensive response to formalin: prevents
